Experiments:
Assay type in all cases: cell-based, Clostridium thermocellum
C. thermocellum [1] = test: Plating on media containing 5-FOA (pyrF negative selection); details: for colony survival after plating on 5-FOA: rich media containing 500 μg of 5-FOA; for growth on media containing 5-FOA: FIG. 8
Protocol: Plasmid pMU482 was transformed into the wild type C. thermocellum strain 1313 and selected on a rich media containing thyamphenicol (at the concentration of 6 μg/ml) to select for cells containing the cat marker encoded on the plasmid. A schematic displaying the creation of the knockout vector is depicted in FIG. 2. Several colonies that resulted from the selection scheme were selected for PCR analysis to confirm that the plasmid had been transformed into the cells. A transformed colony was diluted into liquid, rich medium containing thyamphenicol at the concentration of 6 μg/ml and grown overnight. A culture containing pMU102 (control plasmid) was also grown similarly. The next day, each culture was serially diluted by ten fold (up to 10^−3) using fresh, rich media and 100 μL of the undiluted culture. Each of the dilutions were plated on rich media containing 500 μg of 5-FOA. A schematic of this plating strategy is depicted in FIG. 3.
The plasmid-free C. thermocellum ΔpyrF strain created above was tested to confirm that negative selection could be appropriately applied. Cells were grown and plated using media containing the toxic analog 5-fluoroorotic acid (5-FOA). The protein product of the pyrF gene converts 5-FOA into a toxic compound. Thus, the C. thermocellum ΔpyrF strain should be resistant to 5-FOA, but the wild type or a complemented strain should be susceptible to 5-FOA and unable to grow.

C. thermocellum [2] = test: Plating on 8-azahypoxanthine (hpt negative selection, complementation); details: 500 ug/ml 8-AzaH, FIG. 26
Protocol: Plasmid pMU1657 was transformed into the wild type C. thermocellum strain 1313 and selected for on chloramphenicol. Several colonies were selected and the transformed plasmid was verified by PCR. A colony was diluted into C. thermocellum growth medium and grown overnight. The following morning the dilution closest to an O.D of ˜1.0 was serially diluted and plated on defined medium containing 500 ug/ml 8-azahypoxanthine. Two days later, colonies were observed on the dilution representing 10^−3. Six colonies were selected and PCR screens were performed to verify that the hpt gene had been deleted from the chromosome. After PCR amplification, the expected size of the wild type product having no deletion is 3380 bp and the expected size of the hpt deletion is 2820 bp. […] The colonies were subsequently screened by PCR amplification to confirm that the plasmid had been cured (or lost). In FIG. 25, lane (P) represents the plasmid control that is 3750 bp in size. Colonies that have lost the plasmid would have no product migrating in the lane. The lack of product in lanes 1-6 representing the six different colonies confirm that the plasmid had been cured.
To provide stronger support for this conclusion, the knockout plasmid was reintroduced to look for complementation of the phenotype. […]

C. thermocellum [3] = test: Plating in the presence of FUDR (tdk negative selection); details: FIG. 18
Protocol: To this end, the C. thermocellum pyrF::tdk strain and the control C. thermocellum ΔpyrF strain were plated in the presence of 10 μg/ml FUDR. For each culture, a 10 dilution was used for the plating.

C. thermocellum [4] = test: Plating of cured Δhpt strain on thiamphenicol; details: plasmid-cured Δhpt strain; after 5 days
Protocol: To verify this, the new strain was grown up overnight and plated on thiamphenicol.

C. thermocellum [5] = test: Growth in rich medium with uracil supplementation; details: ΔpyrF strain; rich medium with additional 40 μg/ml uracil; 55° C.
Protocol: Growth rate measurements were performed in a 200 μl volume in a 96-well plate at 55° C. The optical density at 600 nm was read by a Powerwave XS platereader customized by the manufacturer to incubate up to 68° C. (BioTek). The plates were shaken continuously and read at three minute intervals. Each sample was measured in quadruplicate. The specific growth rate (0 was determined by measuring the slope of the natural log-transformed OD readings. A two hour sliding window of OD readings between 0.08 and 1.00 were used for determination of maximum rate μmax. In all cases, the R-squared value was greater than 0.99.
The growth of the pta::gapDHp-cat strain was compared to the wt and ΔpyrF strains in rich medium, with and without uracil supplementation. […] End product analysis was performed on batch fermentations started at pH 7.0 with 5 g/l cellobiose as the primary carbon source under anaerobic conditions with a nitrogen atmosphere and 80 ml working volume. After 48 hours of fermentation the wt and ΔpyrF strain produced about 1 g/l of acetic acid whereas the acetic acid production of the pta::gapDHp-cat was indistinguishable from background levels (average 0.03 g/l).

For `O=C(O)c1[nH]c(=O)[nH]c(=O)c1F` [5-FOA, 5-fluoroorotic acid], the “colony survival after plating on 5-FOA” value (C. thermocellum [1]; colonies containing wild-type pyrF) was “did not survive”, the “colony survival after plating on 5-FOA” value (C. thermocellum [1]; colonies that contained the pyrF disruption) was “visible” and the “growth on media containing 5-FOA” value (C. thermocellum [1]; plasmid-free ΔpyrF strain (also with control plasmid pMU102)) was “able to grow”. The “growth on media containing 5-FOA” value (C. thermocellum [1]; ΔpyrF strain transformed with complementing plasmid pMU612 expressing pyrF) was “no growth”.

`O=c1[nH]cnc2nn[nH]c12` [8-azahypoxanthine] was tested, and the “sensitivity to 8-azahypoxanthine” value (C. thermocellum [2]; Δhpt strain containing complementing plasmid pMU1657) was “sensitivity comparable to wild type levels” and the “sensitivity to 8-azahypoxanthine” value (C. thermocellum [2]; Δhpt strain) was “completely insensitive”.

In the case of `O=c1[nH]c(=O)n([C@H]2C[C@H](O)[C@@H](CO)O2)cc1F` [FUDR, fluorodeoxyuridine], the “growth in the presence of FUDR” value (C. thermocellum [3]; control ΔpyrF strain without tdk, 10 μg/ml FUDR) is reported as “survived”, the “growth in the presence of FUDR” value (C. thermocellum [3]; pyrF::tdk strain, 10 μg/ml FUDR with addition of thymidine) is reported as “did grow” and the “growth in the presence of FUDR” value (C. thermocellum [3]; pyrF::tdk strain, 10 μg/ml FUDR) is reported as “did not grow”.

For `CS(=O)(=O)c1ccc([C@@H](O)[C@@H](CO)NC(=O)C(Cl)Cl)cc1` [thiamphenicol], the “resistant colonies on thiamphenicol” value (C. thermocellum [4]) was “no thiamphenicol resistant colonies were observed”.

`O=c1cc[nH]c(=O)[nH]1` [uracil] was tested, and the “effect of uracil supplementation on growth” value (C. thermocellum [5]) was “eliminated the growth defect”.
